# Columns and labels:
# [1] = system: diethylnitrosamine (DEN)-induced liver fibrosis and liver cancer; assay: DEN-induced liver fibrosis and liver cancer model; type: in vivo, Wistar rats
# From the text: Specifically, five-to-six weeks old Wistar rats were obtained from the animal center at the National Taiwan University Medical School. The rats were given 100 ppm DEN drinking water, and they were weighed weekly at feeding times. […] The feeding of DEN was continued for 9 weeks, which is sufficient to induce the occurrence of liver cirrhosis and liver cancer. Liver cancers were removed from the rats for cancer recurrence study.
# [2] = system: recurrence of liver cirrhosis and liver cancers after removal of DEN-induced tumor; assay: Recurrence model after removal of DEN-induced tumor; type: in vivo, Wistar rats; conditions: pirfenidone 200 mg/kg/day
# Method: Specifically, five-to-six weeks old Wistar rats were obtained from the animal center at the National Taiwan University Medical School. The rats were given 100 ppm DEN drinking water, and they were weighed weekly at feeding times. […] The feeding of DEN was continued for 9 weeks, which is sufficient to induce the occurrence of liver cirrhosis and liver cancer. Liver cancers were removed from the rats for cancer recurrence study. The test samples (GP-T) were tested at two different concentrations and administered to the rats for four weeks (from the ninth to the thirteenth week). Pirfenidone was used as a positive control. In the tests, each group included 6-8 rats. The tests were conducted using the rat model and different concentrations of the GP test samples in the food to assess their effects on liver fibrosis and liver cancer recurrence. Male five-to-six weeks old Wistar rats were obtained from the animal center at the National Taiwan University Medical School. The rats were fed drinking water containing 100 ppm carcinogen, diethylnitrosamine (DEN). During the feeding period, the rats were weighed weekly. The concentrations of DEN were increased according to the body weight increases. After continuous feeding for 9 weeks, DEN was sufficient to induce liver cirrhosis and liver cancer in rats. The liver cancers were removed by surgery after the 9 week period. Then, the rats were treated with two different doses of the test drugs (GP-T) for four weeks (from the ninth week to the thirteenth week). Some rats were given pirfenidone as positive control. In this experiments, each group has n=6-8 rats. This experiment uses a rat model, coupled with feeding the rats with different doses of the test drugs, to evaluate the impacts of the test drugs on the recurrence of liver cirrhosis and liver cancers.
SMILES,"Survival Rate ([1]; sorafenib 30 mg/kg, 6 weeks, DEN rats) [%]","number of activated astrocytes (α-SMA staining) ([1]; sorafenib group (S), 30 mg/kg)",prophylactic effect on the recurrence of carcinogenesis after tumor removal [2],hydroxyproline content in liver ([2]; FIG. 14D),carcinogenesis presented by GST-p(+) density ([2]; four weeks after tumor ablation)
CNC(=O)c1cc(Oc2ccc(NC(=O)Nc3ccc(Cl)c(C(F)(F)F)c3)cc2)ccn1 [Sorafenib],100,significantly reduced number of activated astrocytes,–,–,–
Cc1ccc(=O)n(-c2ccccc2)c1 [pirfenidone],–,–,no prophylactic effect,decreased significantly,decreased

# Source: patent US9474777B2, “Plant extract and the process for treating hepatic fibrosis and liver cancer” (Development Center for Biotechnology, priority 2013, dated 2016)
